# Results: patent US20080221361A1, “Ionic Liquids” (BIONIQS LIMITED, priority 2005, published 2008)
# Tests used:
# Assay type in all cases: physicochemical
# Conditions in all cases: product dried to water content between about 0.2 and 1% w/w
# [1] = Viscosity, AND SV10 vibrational viscometer
# Procedure: (§1) Where the starting materials were both liquids, no solvent was used for the synthesis. Viscosities were measured using an AND™ SV10 vibrational viscometer. Refractive indices were obtained using a Mettler Toledo Refracto™ 30 portable refractometer. Densities were measured simply by determining the mass of a measured volume of the liquid. All products were dried prior to characterisation, to a water content of between about 0.2 and 1% w/w.
# [2] = Refractive index, Mettler Toledo Refracto 30 portable refractometer
# Procedure: as §1
# [3] = Density, mass of a measured volume of the liquid
# Procedure: as §1
Compound,Viscosity at 25° C. (centipoise) (error ± ~5%) [1],Refractive index (error ± ~2%) [2],Density (g/cm^3) (error ± ~2%) [3] [g/mL]
CC(=O)O.COCCCN [3-methoxypropylammonium acetate],640,1.447,1.04
COCCCN.O=C(O)CO [3-methoxypropylammonium glycolate],2670,1.470,1.17
"CC(=O)O.CCN(CC)CCO [N,N-diethylethanolammonium acetate]",55,1.453,1.00
"CCN(CC)CCO.O=CO [N,N-diethylethanolammonium formate]",395,1.462,1.04
"CCN(CC)CCO.O=C(O)CO [N,N-diethylethanolammonium glycolate]",740,1.466,1.11
"CCCCCCCC(=O)O.CCN(CC)CCO [N,N-diethylethanolammonium octanoate]",46,1.451,0.96
"CCC(=O)O.CCN(CC)CCO [N,N-diethylethanolammonium propionate]",42,1.450,0.98
"CC(=O)O.CCN(CC)CC(O)CO (stereo not drawn) [N,N-diethylpropane-2,3-diolammonium acetate]",3100,–,–
"CC(=O)O.COCCN(C)C [N,N-dimethyl-2-methoxyethylammonium acetate]",–,1.426,–
"CCS(=O)(=O)O.COCCN(C)C [N,N-dimethyl-2-methoxyethylammonium ethanesulphonate]",–,1.449,–
"COCCN(C)C.O=C(O)CO [N,N-dimethyl-2-methoxyethylammonium glycolate]",–,1.459,–
"COCCN(C)C.CS(=O)(=O)O [N,N-dimethyl-2-methoxyethylammonium methanesulphonate]",–,1.449,–
"CCC(=O)O.COCCN(C)C [N,N-dimethyl-2-methoxyethylammonium propionate]",–,1.422,–
"COCCN(C)C.NS(=O)(=O)O [N,N-dimethyl-2-methoxyethylammonium sulphamate]",–,1.472,–
"CC(=O)O.CN(C)CCOCCO [N,N-dimethyl-N-[(2-hydroxyethoxy)ethyl]ammonium acetate]",48,1.45,1.05
"CC(=O)O.CN(C)CCCO [N,N-dimethylpropanolammonium acetate]",77,1.451,1.03

Compound,Viscosity at 25° C. (centipoise) (error ± ~5%) [1],Refractive index (error ± ~2%) [2],Density (g/cm^3) (error ± ~2%) [3] [g/mL]
"CN(C)CCCO.O=CO [N,N-dimethylpropanolammonium formate]",132,1.460,1.07
"CN(C)CCCO.O=C(O)CO [N,N-dimethylpropanolammonium glycolate]",3320,1.472,1.14
"CCC(=O)O.CN(C)CCCO [N,N-dimethylpropanolammonium propionate]",52,1.441,0.99
CC(=O)O.CCCCNCCO [N-butylethanolammonium acetate],365,1.455,1.04
CCCCNCCO.O=CO [N-butylethanolammonium formate],376,1.462,1.04
CCCCNCCO.O=C(O)CO [N-butylethanolammonium glycolate],800,1.464,1.08
CCCCCCCC(=O)O.CCCCNCCO [N-butylethanolammonium octanoate],388,1.456,–
CCC(=O)O.CCCCNCCO [N-butylethanolammonium propionate],–,1.457,1.00
CC(=O)O.COCCN(C)CCOC [N-methyl-bis(2-methoxyethyl)ammonium acetate],–,1.423,–
COCCN(C)CCOC.O=C(O)CO [N-methyl-bis(2-methoxyethyl)ammonium glycolate],–,1.452,–
CCC(=O)O.COCCN(C)CCOC [N-methyl-bis(2-methoxyethyl)ammonium propionate],–,1.423,–
CC(=O)O.CCCNCCO [N-propylethanolammonium acetate],1310,1.459,1.04
CCC(=O)O.CCCNCCO [N-propylethanolammonium propionate],483,1.456,1.02
"N,N-dimethyl-2-methoxyethylammonium octanoate",13.5,1.429,0.93
N-methyl-bis(2-methoxyethyl)ammonium octanoate,–,1.431,–
